Data: the NIST ThermoML archive (doi:10.1021/je0301040)
± gives the expanded uncertainty stated by the source.

Experiment: xn = mol fraction of the nth substance listed

FC(Cl)(Cl)Cl [trichlorofluoromethane] + FC(F)Cl
Details	mass density [kg/m3]
374.97 K, 3116.9 kPa, Liquid, Pycnometric method, x1 = 0.8336	1216.83 ± 2.6
374.97 K, 14051 kPa, Liquid, Pycnometric method, x1 = 0.8336	1279.66 ± 2
374.97 K, 21566 kPa, Liquid, Pycnometric method, x1 = 0.8336	1310.86 ± 1.9
374.97 K, 27844 kPa, Liquid, Pycnometric method, x1 = 0.8336	1332.88 ± 1.7
374.97 K, 35188 kPa, Liquid, Pycnometric method, x1 = 0.8336	1355.43 ± 1.7
374.97 K, 42212 kPa, Liquid, Pycnometric method, x1 = 0.8336	1374.59 ± 1.6
374.97 K, 48936 kPa, Liquid, Pycnometric method, x1 = 0.8336	1391.15 ± 1.6
374.97 K, 56118 kPa, Liquid, Pycnometric method, x1 = 0.8336	1407.35 ± 1.6
374.97 K, 63201 kPa, Liquid, Pycnometric method, x1 = 0.8336	1422.2 ± 1.6
374.97 K, 67438 kPa, Liquid, Pycnometric method, x1 = 0.8336	1430.6 ± 1.6
374.98 K, 99.9 kPa, Fluid (supercritical or subcritical phases), Burnett expansion method, x1 = 0.832	4.192 ± 0.084
374.98 K, 100.73 kPa, Fluid (supercritical or subcritical phases), Burnett expansion method, x1 = 0.832	4.2353 ± 0.085
374.98 K, 141.34 kPa, Fluid (supercritical or subcritical phases), Burnett expansion method, x1 = 0.832	5.9685 ± 0.12
374.98 K, 195.81 kPa, Fluid (supercritical or subcritical phases), Burnett expansion method, x1 = 0.832	8.3248 ± 0.17
374.98 K, 197.47 kPa, Fluid (supercritical or subcritical phases), Burnett expansion method, x1 = 0.832	8.4097 ± 0.17
374.98 K, 216.98 kPa, Fluid (supercritical or subcritical phases), Burnett expansion method, x1 = 0.832	9.2699 ± 0.19
374.98 K, 272.55 kPa, Fluid (supercritical or subcritical phases), Burnett expansion method, x1 = 0.832	11.7304 ± 0.24
374.98 K, 275.03 kPa, Fluid (supercritical or subcritical phases), Burnett expansion method, x1 = 0.832	11.8505 ± 0.24
374.98 K, 301.92 kPa, Fluid (supercritical or subcritical phases), Burnett expansion method, x1 = 0.832	13.0615 ± 0.26
374.98 K, 377.56 kPa, Fluid (supercritical or subcritical phases), Burnett expansion method, x1 = 0.832	16.5279 ± 0.33
374.98 K, 381 kPa, Fluid (supercritical or subcritical phases), Burnett expansion method, x1 = 0.832	16.6977 ± 0.33
374.98 K, 417.41 kPa, Fluid (supercritical or subcritical phases), Burnett expansion method, x1 = 0.832	18.4053 ± 0.37
374.98 K, 518.62 kPa, Fluid (supercritical or subcritical phases), Burnett expansion method, x1 = 0.832	23.2877 ± 0.47
374.98 K, 523.72 kPa, Fluid (supercritical or subcritical phases), Burnett expansion method, x1 = 0.832	23.528 ± 0.47
374.98 K, 569 kPa, Gas, isochoric method, x1 = 0.832	201.277 ± 0.14
374.98 K, 1592.7 kPa, Liquid, Pycnometric method, x1 = 0.8336	1204.96 ± 2.5
374.98 K, 1802 kPa, Liquid, Pycnometric method, x1 = 0.8336	1206.68 ± 2.7
374.98 K, 3500.8 kPa, Liquid, Pycnometric method, x1 = 0.8336	1219.67 ± 2.6
374.98 K, 7519.3 kPa, Liquid, Pycnometric method, x1 = 0.8336	1245.72 ± 2.3
375.98 K, 3481.1 kPa, Liquid, isochoric method, x1 = 0.832	1216.37 ± 0.41
375.98 K, 3481.3 kPa, Liquid, isochoric method, x1 = 0.832	1216.37 ± 0.41
380.97 K, 5662.2 kPa, Liquid, isochoric method, x1 = 0.832	1216.02 ± 0.41
385.97 K, 7843.6 kPa, Liquid, isochoric method, x1 = 0.832	1215.66 ± 0.4
385.97 K, 7845.9 kPa, Liquid, isochoric method, x1 = 0.832	1215.66 ± 0.4
389.97 K, 399.7 kPa, Gas, isochoric method, x1 = 0.832	131.569 ± 0.092
389.97 K, 864.3 kPa, Gas, isochoric method, x1 = 0.832	304.496 ± 0.21
399.96 K, 7536.5 kPa, Liquid, Pycnometric method, x1 = 0.8336	1168.49 ± 2.5
399.96 K, 49152 kPa, Liquid, Pycnometric method, x1 = 0.8336	1348.85 ± 1.5
399.97 K, 617 kPa, Gas, isochoric method, x1 = 0.832	201.042 ± 0.14
399.97 K, 3101 kPa, Liquid, Pycnometric method, x1 = 0.8336	1123.2 ± 3
399.97 K, 3459.9 kPa, Liquid, Pycnometric method, x1 = 0.8336	1127.62 ± 3.1
399.97 K, 3838.5 kPa, Liquid, Pycnometric method, x1 = 0.8336	1132.14 ± 3.1
399.97 K, 5333.9 kPa, Liquid, Pycnometric method, x1 = 0.8336	1148.2 ± 2.9
399.97 K, 14526 kPa, Liquid, Pycnometric method, x1 = 0.8336	1217.33 ± 2
399.97 K, 21523 kPa, Liquid, Pycnometric method, x1 = 0.8336	1253.75 ± 1.8
399.97 K, 28491 kPa, Liquid, Pycnometric method, x1 = 0.8336	1283.14 ± 1.6
399.97 K, 35354 kPa, Liquid, Pycnometric method, x1 = 0.8336	1307.71 ± 1.6
399.97 K, 56281 kPa, Liquid, Pycnometric method, x1 = 0.8336	1366.92 ± 1.4
399.97 K, 63214 kPa, Liquid, Pycnometric method, x1 = 0.8336	1383.07 ± 1.5
399.98 K, 2379 kPa, Liquid, Pycnometric method, x1 = 0.8336	1111.44 ± 2.9
399.98 K, 2438.9 kPa, Liquid, Pycnometric method, x1 = 0.8336	1114.58 ± 2.8
399.98 K, 2791.2 kPa, Liquid, Pycnometric method, x1 = 0.8336	1119.29 ± 3
399.98 K, 41888 kPa, Liquid, Pycnometric method, x1 = 0.8336	1328.37 ± 1.5
404.97 K, 909.7 kPa, Gas, isochoric method, x1 = 0.832	304.283 ± 0.24
404.97 K, 1209.7 kPa, Gas, isochoric method, x1 = 0.832	426.452 ± 0.33
409.97 K, 5121.7 kPa, Liquid, isochoric method, x1 = 0.832	1111.12 ± 0.4
414.97 K, 1254.6 kPa, Gas, isochoric method, x1 = 0.832	426.252 ± 0.35
414.97 K, 1558.2 kPa, Gas, isochoric method, x1 = 0.832	556.482 ± 0.46
415.97 K, 7015.9 kPa, Liquid, isochoric method, x1 = 0.832	1110.75 ± 0.39
419.96 K, 1587.9 kPa, Gas, isochoric method, x1 = 0.832	556.352 ± 0.51
421.97 K, 8915.8 kPa, Liquid, isochoric method, x1 = 0.832	1110.38 ± 0.4
424.96 K, 76.05 kPa, Fluid (supercritical or subcritical phases), Burnett expansion method, x1 = 0.832	2.7936 ± 0.056
424.96 K, 106.8 kPa, Fluid (supercritical or subcritical phases), Burnett expansion method, x1 = 0.832	3.939 ± 0.079
424.96 K, 136.17 kPa, Fluid (supercritical or subcritical phases), Burnett expansion method, x1 = 0.832	5.049 ± 0.1
424.96 K, 191.33 kPa, Fluid (supercritical or subcritical phases), Burnett expansion method, x1 = 0.832	7.117 ± 0.14
424.96 K, 210.5 kPa, Fluid (supercritical or subcritical phases), Burnett expansion method, x1 = 0.832	7.8282 ± 0.16
424.96 K, 268.07 kPa, Fluid (supercritical or subcritical phases), Burnett expansion method, x1 = 0.832	10.034 ± 0.2
